This is an account of results in ChEMBL document CHEMBL1133591, “Potent derivatives of glucagon-like peptide-1 with pharmacokinetic properties suitable for once daily administration” (J Med Chem, 2000).

The EC50 is the concentration at which the effect is half-maximal.

For the assay, the target named is Glucagon-like peptide 1 receptor (Homo sapiens, UniProt P43220). Nature of the assay: Potency measured using recombinant human GLP-1 receptor expressed in Baby Hamster Kidney (BHK)cells. It is filed as cell-based.
Chain of Glucagon-like peptide 1 receptor (P43220 whole entry): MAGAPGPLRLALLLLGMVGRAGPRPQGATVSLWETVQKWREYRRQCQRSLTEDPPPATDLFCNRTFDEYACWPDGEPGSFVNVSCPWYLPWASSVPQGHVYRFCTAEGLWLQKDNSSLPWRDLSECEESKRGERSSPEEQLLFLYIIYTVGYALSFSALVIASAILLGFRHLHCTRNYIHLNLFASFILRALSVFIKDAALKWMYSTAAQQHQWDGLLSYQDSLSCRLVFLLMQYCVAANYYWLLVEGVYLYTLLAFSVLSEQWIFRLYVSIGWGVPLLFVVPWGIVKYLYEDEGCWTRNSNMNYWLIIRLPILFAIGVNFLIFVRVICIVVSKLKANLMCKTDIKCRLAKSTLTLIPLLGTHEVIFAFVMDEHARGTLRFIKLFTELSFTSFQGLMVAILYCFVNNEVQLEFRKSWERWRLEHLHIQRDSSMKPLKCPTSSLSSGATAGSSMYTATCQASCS
Regarding `CCCCCCCCCCCCCCCC(=O)NC(CCC(=O)NCCCCC(NC(=O)CNC(=O)[C@H](CCCN=C(N)N)NC(=O)CNC(=O)[C@H](CCCN=C(N)N)NC(=O)[C@@H](NC(=O)[C@H](CC(C)C)NC(=O)[C@H](Cc1c[nH]c2ccccc12)NC(=O)[C@H](C)NC(=O)[C@@H](NC(=O)[C@H](Cc1ccccc1)NC(=O)[C@H](CCC(=O)O)NC(=O)[C@H](CCCN=C(N)N)NC(=O)[C@H](C)NC(=O)[C@H](C)NC(=O)[C@H](CCC(N)=O)NC(=O)CNC(=O)[C@H](CCC(=O)O)NC(=O)[C@H](CC(C)C)NC(=O)[C@H](Cc1ccc(O)cc1)NC(=O)[C@H](CO)NC(=O)[C@H](CO)NC(=O)[C@@H](NC(=O)[C@H](CC(=O)O)NC(=O)[C@H](CO)NC(=O)[C@@H](NC(=O)[C@H](Cc1ccccc1)NC(=O)[C@@H](NC(=O)CNC(=O)[C@H](CCC(=O)O)NC(=O)[C@H](C)NC(=O)[C@@H](N)Cc1c[nH]cn1)[C@@H](C)O)[C@@H](C)O)C(C)C)[C@@H](C)CC)C(C)C)C(=O)O)C(=O)O` (some centres undefined), the EC50 is 0.053 nM.

Consider `CCCCCCCCCCCCCCCC(=O)NC(CCC(=O)NCCCCC(NC(=O)[C@H](CCC(=O)O)NC(=O)[C@H](CCCN=C(N)N)NC(=O)CNC(=O)[C@H](CCCN=C(N)N)NC(=O)[C@@H](NC(=O)[C@H](CC(C)C)NC(=O)[C@H](Cc1c[nH]c2ccccc12)NC(=O)[C@H](C)NC(=O)[C@@H](NC(=O)[C@H](Cc1ccccc1)NC(=O)[C@H](CCC(=O)O)NC(=O)[C@H](CCCN=C(N)N)NC(=O)[C@H](C)NC(=O)[C@H](C)NC(=O)[C@H](CCC(N)=O)NC(=O)CNC(=O)[C@H](CCC(=O)O)NC(=O)[C@H](CC(C)C)NC(=O)[C@H](Cc1ccc(O)cc1)NC(=O)[C@H](CO)NC(=O)[C@H](CO)NC(=O)[C@@H](NC(=O)[C@H](CC(=O)O)NC(=O)[C@H](CO)NC(=O)[C@@H](NC(=O)[C@H](Cc1ccccc1)NC(=O)[C@@H](NC(=O)CNC(=O)[C@H](CCC(=O)O)NC(=O)[C@H](C)NC(=O)[C@@H](N)Cc1c[nH]cn1)[C@@H](C)O)[C@@H](C)O)C(C)C)[C@@H](C)CC)C(C)C)C(=O)O)C(=O)O` (some centres undefined), for which the EC50 was 0.0272 nM.

In the case of `CCCCCCCCCCCCCCCCCC(=O)NC(CCC(=O)NCCCCC(NC(=O)CNC(=O)[C@H](CCCN=C(N)N)NC(=O)CNC(=O)[C@H](CCCN=C(N)N)NC(=O)[C@@H](NC(=O)[C@H](CC(C)C)NC(=O)[C@H](Cc1c[nH]c2ccccc12)NC(=O)[C@H](C)NC(=O)[C@@H](NC(=O)[C@H](Cc1ccccc1)NC(=O)[C@H](CCC(=O)O)NC(=O)[C@H](CCCN=C(N)N)NC(=O)[C@H](C)NC(=O)[C@H](C)NC(=O)[C@H](CCC(N)=O)NC(=O)CNC(=O)[C@H](CCC(=O)O)NC(=O)[C@H](CC(C)C)NC(=O)[C@H](Cc1ccc(O)cc1)NC(=O)[C@H](CO)NC(=O)[C@H](CO)NC(=O)[C@@H](NC(=O)[C@H](CC(=O)O)NC(=O)[C@H](CO)NC(=O)[C@@H](NC(=O)[C@H](Cc1ccccc1)NC(=O)[C@@H](NC(=O)CNC(=O)[C@H](CCC(=O)O)NC(=O)[C@H](C)NC(=O)[C@@H](N)Cc1c[nH]cn1)[C@@H](C)O)[C@@H](C)O)C(C)C)[C@@H](C)CC)C(C)C)C(=O)O)C(=O)O` (some centres undefined), the EC50 came to 0.115 nM. Turning to `CCCCCCCCCCCCCCCC(=O)NC(CCC(=O)NCCCC[C@H](NC(=O)[C@H](C)NC(=O)[C@H](C)NC(=O)[C@H](CCC(N)=O)NC(=O)CNC(=O)[C@H](CCC(=O)O)NC(=O)[C@H](CC(C)C)NC(=O)[C@H](Cc1ccc(O)cc1)NC(=O)[C@H](CO)NC(=O)[C@H](CO)NC(=O)[C@@H](NC(=O)[C@H](CC(=O)O)NC(=O)[C@H](CO)NC(=O)[C@@H](NC(=O)[C@H](Cc1ccccc1)NC(=O)[C@@H](NC(=O)CNC(=O)[C@H](CCC(=O)O)NC(=O)[C@H](C)NC(=O)CCc1c[nH]cn1)[C@@H](C)O)[C@@H](C)O)C(C)C)C(=O)N[C@@H](CCC(=O)O)C(=O)N[C@@H](Cc1ccccc1)C(=O)N[C@H](C(=O)N[C@@H](C)C(=O)N[C@@H](Cc1c[nH]c2ccccc12)C(=O)N[C@@H](CC(C)C)C(=O)N[C@H](C(=O)N[C@@H](CCCN=C(N)N)C(=O)NCC(=O)N[C@@H](CCCN=C(N)N)C(=O)NCC(=O)O)C(C)C)[C@@H](C)CC)C(=O)O` (some centres undefined), the EC50 turned out to be 0.687 nM.
